# Source: patent US20140243286A1, “BROMODOMAIN LIGANDS CAPABLE OF DIMERIZING IN AN AQUEOUS SOLUTION, AND METHODS OF USING SAME” (Coferon, Inc., priority 2011, published 2014)
# Like-named read-outs stand apart in the source and are kept apart here.
# Key:
# BRD3 = BRD3 (Homo sapiens, UniProt Q15059); experiment: Fluorescence anisotropy (FA) binding assay, BRD3
# Protocol: (§1) Fluorescence Anisotropy (FA) Binding Assays.
# (§2) FA assays were performed as described in Chung et al., J. Med Chem., 2011 54(11): 3827-38 except that protein concentrations were 125 nM and plates were read on a Spectramax M5 plate reader.
# BRD4 = BRD4 (Homo sapiens, UniProt O60885); experiment: Fluorescence anisotropy (FA) binding assay, BRD4
# Protocol: as §1, §2
# BRD2 = BRD2 (Homo sapiens, UniProt P25440); experiment: Fluorescence anisotropy (FA) binding assay, BRD2
# Sequence of BRD2 (P25440 whole entry): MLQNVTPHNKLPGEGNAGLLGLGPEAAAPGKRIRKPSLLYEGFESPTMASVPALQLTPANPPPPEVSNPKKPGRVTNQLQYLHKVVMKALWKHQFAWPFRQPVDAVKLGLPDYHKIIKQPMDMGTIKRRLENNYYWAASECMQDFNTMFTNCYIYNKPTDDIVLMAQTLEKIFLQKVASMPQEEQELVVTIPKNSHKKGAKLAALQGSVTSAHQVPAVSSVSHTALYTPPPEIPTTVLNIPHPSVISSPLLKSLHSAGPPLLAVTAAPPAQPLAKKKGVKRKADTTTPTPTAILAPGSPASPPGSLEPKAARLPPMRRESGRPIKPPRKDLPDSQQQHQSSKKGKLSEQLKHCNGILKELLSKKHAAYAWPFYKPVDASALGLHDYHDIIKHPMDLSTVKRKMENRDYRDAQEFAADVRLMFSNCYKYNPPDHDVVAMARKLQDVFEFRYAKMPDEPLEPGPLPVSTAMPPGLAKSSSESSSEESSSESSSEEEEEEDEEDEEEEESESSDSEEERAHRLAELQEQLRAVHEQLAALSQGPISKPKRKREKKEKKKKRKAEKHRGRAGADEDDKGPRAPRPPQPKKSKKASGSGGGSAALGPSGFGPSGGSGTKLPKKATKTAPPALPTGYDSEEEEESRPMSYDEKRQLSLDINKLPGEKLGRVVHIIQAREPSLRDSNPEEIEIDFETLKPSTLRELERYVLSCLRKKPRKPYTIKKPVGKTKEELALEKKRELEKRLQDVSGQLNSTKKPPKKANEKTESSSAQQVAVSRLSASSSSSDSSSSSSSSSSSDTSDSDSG
# Protocol: as §1, §2
# bromodomain = experiment: TR-FRET assay; assay type: binding; details: BRD-S monomers; based on monomer concentration; read-out: IC50 range (based on monomer concentration), Group (FRET assay)
# Protocol: TR-FRET assays were performed as described in Chung et al, J. Med Chem., 2011 54(11): 3827-38 except that FRET was measured on a Spectramax M5 plate reader.
# [1] = BRD3, protein 125 nM, read-out: IC50 range (FA assay) BRD3, BRD-N monomers
# [2] = BRD4, protein 125 nM, read-out: IC50 range (FA assay) BRD4, BRD-N monomers
# [3] = BRD2, protein 125 nM, read-out: IC50 range (FA assay) BRD2, BRD-N monomers
# Sequence of BRD3 (Q15059 whole entry): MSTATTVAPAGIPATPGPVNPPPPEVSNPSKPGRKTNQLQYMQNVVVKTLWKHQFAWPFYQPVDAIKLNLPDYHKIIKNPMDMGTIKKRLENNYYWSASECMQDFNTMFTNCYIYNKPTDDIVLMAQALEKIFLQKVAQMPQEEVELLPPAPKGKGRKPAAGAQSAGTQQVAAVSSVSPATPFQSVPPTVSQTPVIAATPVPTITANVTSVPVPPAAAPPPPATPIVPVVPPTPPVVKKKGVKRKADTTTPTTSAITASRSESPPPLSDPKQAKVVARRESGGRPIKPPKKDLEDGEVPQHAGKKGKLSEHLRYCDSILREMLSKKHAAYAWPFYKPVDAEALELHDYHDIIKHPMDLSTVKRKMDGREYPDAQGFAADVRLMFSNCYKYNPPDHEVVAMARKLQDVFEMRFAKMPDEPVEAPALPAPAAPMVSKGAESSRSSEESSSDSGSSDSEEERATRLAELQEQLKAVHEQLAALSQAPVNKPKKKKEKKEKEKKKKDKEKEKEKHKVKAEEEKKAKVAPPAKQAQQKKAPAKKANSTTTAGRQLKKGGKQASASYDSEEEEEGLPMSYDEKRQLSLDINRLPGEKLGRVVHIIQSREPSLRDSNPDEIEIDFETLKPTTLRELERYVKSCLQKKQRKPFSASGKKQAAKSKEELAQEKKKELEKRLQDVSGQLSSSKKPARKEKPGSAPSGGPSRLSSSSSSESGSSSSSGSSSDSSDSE
Structure (SMILES),melting point [°C],IC50 (BRD3; [1]) [nM],IC50 (BRD4; [2]) [nM],IC50 (BRD2; [3]) [nM],IC50 (BRD3) [nM],IC50 (BRD4) [nM],IC50 (BRD2) [nM],IC50 (bromodomain) [nM]
CCNC(=O)C[C@@H]1N=C(c2ccc(Cl)cc2)c2cc(O)ccc2-n2c(C)nnc21,180 to 182,,,,,,,
"COc1ccc2c(c1)C(c1ccc(Cl)cc1)=N[C@@H](CC(=O)NCCCCCNC(=O)c1cccc(O)c1O)c1nnc(C)n1-2 [BRD-N-08, N-(5-(2-((4S)-6-(4-chlorophenyl)-8-methoxy-1-methyl-4H-benzo[f][1,2,4]triazolo[4,3-a][1,4]diazepin-4-yl)acetamido)pentyl)-2,3-dihydroxybenzamide]",,50 to 1000,50 to 1000,50 to 1000,,,,
"COc1ccc2c(c1)C(c1ccc(Cl)cc1)=N[C@@H](CC(=O)NCc1ccc(O)c(O)c1)c1nnc(C)n1-2 [BRD-N-09, (S)-2-(6-(4-chlorophenyl)-8-methoxy-1-methyl-4H-benzo[f][1,2,4]triazolo[4,3-a][1,4]diazepin-4-yl)-N-(3,4-dihydroxybenzyl)acetamide]",,50 to 1000,50 to 1000,50 to 1000,,,,
"COc1ccc2c(c1)C(c1ccc(Cl)cc1)=N[C@@H](CC(=O)NCCc1ccc(O)c(O)c1)c1nnc(C)n1-2 [BRD-N-10, (S)-2-(6-(4-chlorophenyl)-8-methoxy-1-methyl-4H-benzo[f][1,2,4]triazolo[4,3-a][1,4]diazepin-4-yl)-N-(3,4-dihydroxyphenethyl)acetamide]",,50 to 1000,50 to 1000,50 to 1000,,,,
"COc1ccc2c(c1)C(c1ccc(Cl)cc1)=N[C@@H](CC(=O)NCc1cccc(O)c1O)c1nnc(C)n1-2 [BRD-N-11, (S)-2-(6-(4-chlorophenyl)-8-methoxy-1-methyl-4H-benzo[f][1,2,4]triazolo[4,3-a][1,4]diazepin-4-yl)-N-(2,3-dihydroxybenzyl)acetamide]",,50 to 1000,50 to 1000,50 to 1000,,,,
"COc1ccc2c(c1)C(c1ccc(Cl)cc1)=N[C@@H](CC(=O)NCCc1cccc(O)c1O)c1nnc(C)n1-2 [BRD-N-12, (S)-2-(6-(4-chlorophenyl)-8-methoxy-1-methyl-4H-benzo[f][1,2,4]triazolo[4,3-a][1,4]diazepin-4-yl)-N-(2,3-dihydroxyphenethyl)acetamide]",,50 to 1000,50 to 1000,50 to 1000,,,,
"CCNC(=O)C[C@@H]1N=C(c2ccc(Cl)cc2)c2cc(OCC(=O)Nc3ccc(O)c(O)c3)ccc2-n2c(C)nnc21 [BRD-N-16, (S)-2-((6-(4-chlorophenyl)-4-(2-(ethylamino)-2-oxoethyl)-1-methyl-4H-benzo[f][1,2,4]triazolo[4,3-a][1,4]diazepin-8-yl)oxy)-N-(3,4-dihydroxyphenyl)acetamide]",,50 to 1000,50 to 1000,50 to 1000,,,,
"CCNC(=O)C[C@@H]1N=C(c2ccc(Cl)cc2)c2cc(OCC(=O)Nc3cccc(O)c3O)ccc2-n2c(C)nnc21 [BRD-N-17, (S)-2-((6-(4-chlorophenyl)-4-(2-(ethylamino)-2-oxoethyl)-1-methyl-4H-benzo[f][1,2,4]triazolo[4,3-a][1,4]diazepin-8-yl)oxy)-N-(2,3-dihydroxyphenyl)acetamide]",,1000 to 30000,50 to 1000,50 to 1000,,,,
"CCNC(=O)C[C@@H]1N=C(c2ccc(Cl)cc2)c2cc(OCCCC(=O)Nc3ccc(O)c(O)c3)ccc2-n2c(C)nnc21 [BRD-N-20, (S)-4-((6-(4-chlorophenyl)-4-(2-(ethylamino)-2-oxoethyl)-1-methyl-4H-benzo[f][1,2,4]triazolo[4,3-a][1,4]diazepin-8-yl)oxy)-N-(3,4-dihydroxyphenyl)butanamide]",,50 to 1000,50 to 1000,50 to 1000,,,,
"CCNC(=O)C[C@@H]1N=C(c2ccc(Cl)cc2)c2cc(OCCCC(=O)Nc3cccc(O)c3O)ccc2-n2c(C)nnc21 [BRD-N-21, (S)-4-((6-(4-chlorophenyl)-4-(2-(ethylamino)-2-oxoethyl)-1-methyl-4H-benzo[f][1,2,4]triazolo[4,3-a][1,4]diazepin-8-yl)oxy)-N-(2,3-dihydroxyphenyl)butanamide]",,50 to 1000,50 to 1000,1000 to 30000,,,,
"CCNC(=O)C[C@@H]1N=C(c2ccc(Cl)cc2)c2cc(OCCCCC(=O)Nc3ccc(O)c(O)c3)ccc2-n2c(C)nnc21 [BRD-N-22, (S)-5-((6-(4-chlorophenyl)-4-(2-(ethylamino)-2-oxoethyl)-1-methyl-4H-benzo[f][1,2,4]triazolo[4,3-a][1,4]diazepin-8-yl)oxy)-N-(3,4-dihydroxyphenyl)pentanamide]",,50 to 1000,50 to 1000,50 to 1000,,,,
"CCNC(=O)C[C@@H]1N=C(c2ccc(Cl)cc2)c2cc(OCCCCC(=O)Nc3cccc(O)c3O)ccc2-n2c(C)nnc21 [BRD-N-23, (S)-5-((6-(4-chlorophenyl)-4-(2-(ethylamino)-2-oxoethyl)-1-methyl-4H-benzo[f][1,2,4]triazolo[4,3-a][1,4]diazepin-8-yl)oxy)-N-(2,3-dihydroxyphenyl)pentanamide]",,,,,50 to 1000,50 to 1000,50 to 1000,
CCNC(=O)C[C@@H]1N=C(c2ccc(Cl)cc2)c2cc(OCCNC(=O)c3ccc(O)c(O)c3)ccc2-n2c(C)nnc21 [BRD-N-24],,50 to 1000,1000 to 30000,50 to 1000,,,,
"CCNC(=O)C[C@@H]1N=C(c2ccc(Cl)cc2)c2cc(OCCNC(=O)c3cccc(O)c3O)ccc2-n2c(C)nnc21 [BRD-N-25, (S)—N-(2-((6-(4-chlorophenyl)-4-(2-(ethylamino)-2-oxoethyl)-1-methyl-4H-benzo[f][1,2,4]triazolo[4,3-a][1,4]diazepin-8-yl)oxy)ethyl)-2,3-dihydroxybenzamide]",,50 to 1000,50 to 1000,1000 to 30000,,,,
"CCNC(=O)C[C@@H]1N=C(c2ccc(Cl)cc2)c2cc(OCCCNC(=O)c3ccc(O)c(O)c3)ccc2-n2c(C)nnc21 [BRD-N-26, (S)—N-(3-((6-(4-chlorophenyl)-4-(2-(ethylamino)-2-oxoethyl)-1-methyl-4H-benzo[f][1,2,4]triazolo[4,3-a][1,4]diazepin-8-yl)oxy)propyl)-3,4-dihydroxybenzaamide]",,1000 to 30000,1000 to 30000,1000 to 30000,,,,
"CCNC(=O)C[C@@H]1N=C(c2ccc(Cl)cc2)c2cc(OCCCNC(=O)c3cccc(O)c3O)ccc2-n2c(C)nnc21 [BRD-N-27, (S)—N-(3-((6-(4-chlorophenyl)-4-(2-(ethylamino)-2-oxoethyl)-1-methyl-4H-benzo[f][1,2,4]triazolo[4,3-a][1,4]diazepin-8-yl)oxy)propyl)-2,3-dihydroxybenzamide]",,50 to 1000,50 to 1000,1000 to 30000,,,,
"CCNC(=O)C[C@@H]1N=C(c2ccc(Cl)cc2)c2cc(OCCCCNC(=O)c3ccc(O)c(O)c3)ccc2-n2c(C)nnc21 [BRD-N-28, (S)—N-(4-((6-(4-chlorophenyl)-4-(2-(ethylamino)-2-oxoethyl)-1-methyl-4H-benzo[f][1,2,4]triazolo[4,3-a][1,4]diazepin-8-yl)oxy)butyl)-3,4-dihydroxybenzamide]",,50 to 1000,1000 to 30000,1000 to 30000,,,,
"CCNC(=O)C[C@@H]1N=C(c2ccc(Cl)cc2)c2cc(OCCCCNC(=O)c3cccc(O)c3O)ccc2-n2c(C)nnc21 [BRD-N-29, (S)—N-(4-((6-(4-chlorophenyl)-4-(2-(ethylamino)-2-oxoethyl)-1-methyl-4H-benzo[f][1,2,4]triazolo[4,3-a][1,4]diazepin-8-yl)oxy)butyl)-2,3-dihydroxybenzamide]",,1000 to 30000,1000 to 30000,50 to 1000,,,,
"COc1ccc2c(c1)C(c1ccc(Cl)cc1)=N[C@@H](CC(=O)NCCNC(=O)Cc1ccc(O)c(O)c1)c1nnc(C)n1-2 [BRD-N-30, 2-((4S)-6-(4-chlorophenyl)-8-methoxy-1-methyl-4H-benzo[f][1,2,4]triazolo[4,3-a][1,4]diazepin-4-yl)-N-(2-(2-(3,4-dihydroxyphenyl)acetamido)ethyl)acetamide]",,50 to 1000,50 to 1000,50 to 1000,,,,
"COc1ccc2c(c1)C(c1ccc(Cl)cc1)=N[C@@H](CC(=O)NCCOc1cccc([Si](C)(C)O)c1)c1nnc(C)n1-2 [BRD-S-10, (S)-2-(6-(4-chlorophenyl)-8-methoxy-1-methyl-4H-benzo[f][1,2,4]triazolo[4,3-a][1,4]diazepin-4-yl)-N-(2-(3-(hydroxydimethylsilyl)phenoxy)ethyl)acetamide]",,,,,,,,100 to 300
